Results on one compound are retold here after ChEMBL document CHEMBL1154277, “Discovery of N-substituted pyridinones as potent and selective inhibitors of p38 kinase” (Bioorg Med Chem Lett, 2009).

The target in data set [1] is Serine/threonine-protein kinase Chk2 (Homo sapiens) (UniProt O96017). The experiment in a line: Inhibition of CHK2 at 10 uM.
The target in data set [2] is Cyclin-dependent kinase 2/cyclin A (Homo sapiens) (UniProt P24941+P20248+P78396). The experiment in a line: Inhibition of CDK2/cyclinA at 10 uM. Type of data set: protein-complex assay.
Data set [3] addresses Ephrin type-A receptor 4 (Homo sapiens) (UniProt P54764). Put plainly: Inhibition of EPHA4 at 10 uM.
For data set [4], the target named is Serine/threonine-protein kinase Nek9 (Homo sapiens) (UniProt Q8TD19). The experiment in a line: Inhibition of NEK9 at 10 uM.
In data set [5] the target is Tyrosine-protein kinase receptor UFO (Homo sapiens) (UniProt P30530). The experiment in a line: Inhibition of AXL at 10 uM.
The target of data set [6] is Serine/threonine-protein kinase N1 (Homo sapiens) (UniProt Q16512). The experiment in a line: Inhibition of PRK1 at 10 uM.
The target in data set [7] is Ephrin type-A receptor 5 (Homo sapiens) (UniProt P54756). The experiment in a line: Inhibition of EPHA5 at 10 uM.
For data set [8], the target named is Mitogen-activated protein kinase 12 (Homo sapiens) (UniProt P53778). The experiment in a line: Inhibition of p38-gamma at 10 uM.
Data set [9] concerns the target Fibroblast growth factor receptor 3 (Homo sapiens) (UniProt P22607). The experiment in a line: Inhibition of FGFR3 at 10 uM.
A short description of data set [10]: Metabolic stability in rat liver microsomes assessed as compound remaining at 2 uM after 45 mins by LC/MS analysis. Type of data set: ADME, Microsome. The conditions noted are these: read-out: Stability.
Data set [11] deals with MAP kinase-activated protein kinase 5 (Homo sapiens) (UniProt Q8IW41). The experiment in a line: Inhibition of PRAK at 10 uM.
The target in data set [12] is Tyrosine-protein kinase JAK2 (Homo sapiens) (UniProt O60674). Put plainly: Inhibition of JAK2 at 10 uM.
Data set [13] concerns the target Tyrosine-protein kinase SYK (Homo sapiens) (UniProt P43405). Put plainly: Inhibition of SYK at 10 uM.
Data set [14] addresses RAC-beta serine/threonine-protein kinase (Homo sapiens) (UniProt P31751). Put plainly: Inhibition of AKT2 at 10 uM.
The target in data set [15] is Serine/threonine-protein kinase MARK1 (Homo sapiens) (UniProt Q9P0L2). The experiment in a line: Inhibition of MARK1 at 10 uM.
For data set [16], the target named is Tyrosine-protein kinase JAK3 (Homo sapiens) (UniProt P52333). Put plainly: Inhibition of JAK3 at 10 uM.
For data set [17], the target named is Protein kinase C epsilon type (Homo sapiens) (UniProt Q02156). The experiment in a line: Inhibition of PKCepsilon at 10 uM.
The target in data set [18] is CDK9/cyclin T1 (Homo sapiens) (UniProt O60563+P50750). Put plainly: Inhibition of CDK9/cyclin T1 at 10 uM. It counts as protein-complex assay.
The target of data set [19] is Platelet-derived growth factor receptor alpha (Homo sapiens) (UniProt P16234). The experiment in a line: Inhibition of PDGFRalpha at 10 uM.
For data set [20], the target named is Serine/threonine-protein kinase PAK 5 (Homo sapiens) (UniProt Q9P286). Put plainly: Inhibition of PAK7 at 10 uM.
For data set [21], the target named is Cyclin-dependent kinase 5/CDK5 activator 1 (Homo sapiens) (UniProt Q00535+Q15078). Put plainly: Inhibition of CDK5/p25 at 10 uM. Type of data set: protein-complex assay.
Data set [22] concerns the target AMP-activated protein kinase (AMPK) alpha-1/beta-1/gamma-1 (Homo sapiens) (UniProt P54619+Q9Y478+Q13131). The experiment in a line: Inhibition of AMPK alpha-1/beta-1/gamma-1 at 10 uM. Type of data set: protein-complex assay.
In data set [23] the test system is Mast/stem cell growth factor receptor Kit (Homo sapiens), P10721 [T670I]. Put plainly: Inhibition of KIT T670I (mutant) at 10 uM.
The target of data set [24] is Casein kinase I isoform gamma-3 (Homo sapiens) (UniProt Q9Y6M4). Put plainly: Inhibition of CK1gamma3 at 10 uM.
Sequence of Casein kinase I isoform gamma-3 (Homo sapiens) (Q9Y6M4 whole entry, looked up, canonical isoform): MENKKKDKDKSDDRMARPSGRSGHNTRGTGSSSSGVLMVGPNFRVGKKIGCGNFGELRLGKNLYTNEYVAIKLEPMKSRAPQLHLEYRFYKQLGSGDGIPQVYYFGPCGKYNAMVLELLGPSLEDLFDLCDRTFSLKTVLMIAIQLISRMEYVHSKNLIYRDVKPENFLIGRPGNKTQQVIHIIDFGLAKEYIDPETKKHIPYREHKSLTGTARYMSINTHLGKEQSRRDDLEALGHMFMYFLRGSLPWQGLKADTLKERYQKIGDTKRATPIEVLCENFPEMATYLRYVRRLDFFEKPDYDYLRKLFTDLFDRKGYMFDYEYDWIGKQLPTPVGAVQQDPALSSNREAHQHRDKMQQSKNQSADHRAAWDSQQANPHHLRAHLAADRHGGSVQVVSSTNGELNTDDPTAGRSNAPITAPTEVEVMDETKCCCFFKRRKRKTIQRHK

Sequence of Serine/threonine-protein kinase Nek9 (Homo sapiens) (Q8TD19 whole entry): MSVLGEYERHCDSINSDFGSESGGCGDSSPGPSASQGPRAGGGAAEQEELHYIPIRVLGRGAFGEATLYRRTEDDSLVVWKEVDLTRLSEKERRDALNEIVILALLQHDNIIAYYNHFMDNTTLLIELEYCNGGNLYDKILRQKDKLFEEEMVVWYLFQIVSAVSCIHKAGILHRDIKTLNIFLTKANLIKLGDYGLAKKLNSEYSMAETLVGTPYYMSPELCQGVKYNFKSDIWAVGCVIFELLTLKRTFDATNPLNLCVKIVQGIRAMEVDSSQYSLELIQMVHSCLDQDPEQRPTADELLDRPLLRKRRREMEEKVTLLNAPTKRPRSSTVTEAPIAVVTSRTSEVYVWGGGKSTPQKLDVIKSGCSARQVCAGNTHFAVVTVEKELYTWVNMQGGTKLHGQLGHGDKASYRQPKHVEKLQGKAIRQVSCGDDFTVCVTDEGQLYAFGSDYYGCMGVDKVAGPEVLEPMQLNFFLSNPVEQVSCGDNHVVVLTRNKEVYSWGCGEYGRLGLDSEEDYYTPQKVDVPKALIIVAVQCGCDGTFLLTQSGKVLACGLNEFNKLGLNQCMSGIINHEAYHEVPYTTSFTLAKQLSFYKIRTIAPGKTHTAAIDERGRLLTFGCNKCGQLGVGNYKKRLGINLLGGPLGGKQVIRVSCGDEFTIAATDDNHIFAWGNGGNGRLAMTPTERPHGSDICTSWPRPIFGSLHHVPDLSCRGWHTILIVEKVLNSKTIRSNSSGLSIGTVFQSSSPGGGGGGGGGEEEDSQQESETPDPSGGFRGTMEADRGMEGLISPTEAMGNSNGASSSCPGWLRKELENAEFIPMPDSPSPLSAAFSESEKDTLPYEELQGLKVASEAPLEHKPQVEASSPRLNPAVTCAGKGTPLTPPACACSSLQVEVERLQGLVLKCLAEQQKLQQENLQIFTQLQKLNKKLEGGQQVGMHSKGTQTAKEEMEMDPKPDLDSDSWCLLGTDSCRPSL
Sequence of Protein kinase C epsilon type (Homo sapiens) (Q02156 whole entry): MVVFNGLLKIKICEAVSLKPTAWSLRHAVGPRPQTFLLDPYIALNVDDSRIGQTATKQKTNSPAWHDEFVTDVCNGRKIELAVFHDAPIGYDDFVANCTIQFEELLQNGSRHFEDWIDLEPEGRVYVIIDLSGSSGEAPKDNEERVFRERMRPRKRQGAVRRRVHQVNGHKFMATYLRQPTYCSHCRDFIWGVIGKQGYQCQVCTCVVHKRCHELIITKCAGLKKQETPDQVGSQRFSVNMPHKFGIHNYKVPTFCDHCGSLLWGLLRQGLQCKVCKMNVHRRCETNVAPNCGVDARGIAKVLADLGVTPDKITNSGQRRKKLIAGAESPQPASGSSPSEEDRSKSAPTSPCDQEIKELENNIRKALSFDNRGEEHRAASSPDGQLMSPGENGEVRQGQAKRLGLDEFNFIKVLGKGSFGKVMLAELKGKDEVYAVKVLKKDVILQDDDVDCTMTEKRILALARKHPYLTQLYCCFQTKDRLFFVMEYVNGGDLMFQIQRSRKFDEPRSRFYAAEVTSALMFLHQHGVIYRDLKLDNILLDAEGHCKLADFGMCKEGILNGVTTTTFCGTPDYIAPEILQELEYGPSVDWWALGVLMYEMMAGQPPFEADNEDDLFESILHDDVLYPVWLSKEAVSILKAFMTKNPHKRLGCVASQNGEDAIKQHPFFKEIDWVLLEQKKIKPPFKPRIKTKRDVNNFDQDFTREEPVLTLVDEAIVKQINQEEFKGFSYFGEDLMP
Sequence of Fibroblast growth factor receptor 3 (Homo sapiens) (P22607 23-806 limits assumed): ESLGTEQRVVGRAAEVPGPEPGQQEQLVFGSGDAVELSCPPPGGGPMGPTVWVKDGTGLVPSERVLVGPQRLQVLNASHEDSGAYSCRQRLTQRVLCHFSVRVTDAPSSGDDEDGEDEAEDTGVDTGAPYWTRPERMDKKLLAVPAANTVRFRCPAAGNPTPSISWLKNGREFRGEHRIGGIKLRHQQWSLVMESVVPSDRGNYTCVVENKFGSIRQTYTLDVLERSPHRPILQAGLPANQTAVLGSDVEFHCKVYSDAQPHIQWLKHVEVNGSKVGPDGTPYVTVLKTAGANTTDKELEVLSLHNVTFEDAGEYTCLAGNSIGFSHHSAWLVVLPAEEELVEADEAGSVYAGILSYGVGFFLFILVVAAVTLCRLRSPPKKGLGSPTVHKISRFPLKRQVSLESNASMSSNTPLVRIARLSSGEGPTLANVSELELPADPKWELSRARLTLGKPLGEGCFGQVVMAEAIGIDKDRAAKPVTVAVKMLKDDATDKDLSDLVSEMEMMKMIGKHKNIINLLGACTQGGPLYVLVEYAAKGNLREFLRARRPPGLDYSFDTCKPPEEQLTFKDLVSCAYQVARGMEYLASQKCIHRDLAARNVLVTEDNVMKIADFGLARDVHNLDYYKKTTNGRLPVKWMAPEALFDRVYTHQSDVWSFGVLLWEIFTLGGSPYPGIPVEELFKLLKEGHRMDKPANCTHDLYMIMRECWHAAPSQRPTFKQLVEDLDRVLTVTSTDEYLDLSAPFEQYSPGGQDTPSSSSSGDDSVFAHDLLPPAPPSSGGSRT
Sequence of Mitogen-activated protein kinase 12 (Homo sapiens) (P53778 whole entry): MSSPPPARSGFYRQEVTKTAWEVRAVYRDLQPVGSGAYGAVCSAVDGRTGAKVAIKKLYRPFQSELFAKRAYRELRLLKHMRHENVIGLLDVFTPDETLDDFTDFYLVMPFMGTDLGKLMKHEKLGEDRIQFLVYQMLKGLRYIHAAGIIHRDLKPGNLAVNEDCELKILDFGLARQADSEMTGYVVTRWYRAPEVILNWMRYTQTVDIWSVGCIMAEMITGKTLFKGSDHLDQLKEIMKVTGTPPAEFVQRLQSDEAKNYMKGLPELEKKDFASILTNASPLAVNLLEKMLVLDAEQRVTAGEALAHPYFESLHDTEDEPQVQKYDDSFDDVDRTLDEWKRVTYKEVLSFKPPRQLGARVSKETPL
Sequence of AMP-activated protein kinase (AMPK) alpha-1/beta-1/gamma-1 (Homo sapiens) (P54619 whole entry): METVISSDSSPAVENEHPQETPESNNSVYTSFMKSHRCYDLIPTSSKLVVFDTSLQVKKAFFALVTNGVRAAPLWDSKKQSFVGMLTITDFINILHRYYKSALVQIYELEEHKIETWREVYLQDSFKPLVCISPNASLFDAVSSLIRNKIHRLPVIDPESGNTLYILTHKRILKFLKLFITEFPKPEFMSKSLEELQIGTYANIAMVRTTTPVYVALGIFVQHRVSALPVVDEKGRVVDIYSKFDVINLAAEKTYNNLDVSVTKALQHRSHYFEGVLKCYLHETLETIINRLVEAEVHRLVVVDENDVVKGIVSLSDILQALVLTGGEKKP
Sequence of AMP-activated protein kinase (AMPK) alpha-1/beta-1/gamma-1 (Homo sapiens) (Q13131 whole entry partner): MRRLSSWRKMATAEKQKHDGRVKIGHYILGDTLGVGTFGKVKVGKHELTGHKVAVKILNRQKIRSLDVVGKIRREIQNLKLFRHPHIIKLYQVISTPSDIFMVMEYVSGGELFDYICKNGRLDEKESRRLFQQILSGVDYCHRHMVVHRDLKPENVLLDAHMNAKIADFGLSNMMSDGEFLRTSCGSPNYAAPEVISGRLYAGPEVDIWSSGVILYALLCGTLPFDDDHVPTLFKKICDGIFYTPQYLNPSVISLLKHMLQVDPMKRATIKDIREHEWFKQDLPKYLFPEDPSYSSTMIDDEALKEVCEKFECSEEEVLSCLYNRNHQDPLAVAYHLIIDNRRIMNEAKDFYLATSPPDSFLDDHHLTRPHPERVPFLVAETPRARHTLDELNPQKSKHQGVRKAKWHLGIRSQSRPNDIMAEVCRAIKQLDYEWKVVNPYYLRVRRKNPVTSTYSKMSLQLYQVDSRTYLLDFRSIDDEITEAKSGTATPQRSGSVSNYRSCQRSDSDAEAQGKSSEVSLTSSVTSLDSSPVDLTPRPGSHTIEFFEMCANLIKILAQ
Sequence of AMP-activated protein kinase (AMPK) alpha-1/beta-1/gamma-1 (Homo sapiens) (Q9Y478 2-270 partner limits assumed): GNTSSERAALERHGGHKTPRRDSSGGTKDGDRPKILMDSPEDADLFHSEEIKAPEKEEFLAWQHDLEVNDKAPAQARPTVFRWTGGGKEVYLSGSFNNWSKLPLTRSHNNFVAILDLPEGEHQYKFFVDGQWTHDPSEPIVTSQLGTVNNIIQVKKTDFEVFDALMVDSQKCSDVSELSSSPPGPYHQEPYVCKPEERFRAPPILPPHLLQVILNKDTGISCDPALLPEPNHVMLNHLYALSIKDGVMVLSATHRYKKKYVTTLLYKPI
Sequence of RAC-beta serine/threonine-protein kinase (Homo sapiens) (P31751 whole entry): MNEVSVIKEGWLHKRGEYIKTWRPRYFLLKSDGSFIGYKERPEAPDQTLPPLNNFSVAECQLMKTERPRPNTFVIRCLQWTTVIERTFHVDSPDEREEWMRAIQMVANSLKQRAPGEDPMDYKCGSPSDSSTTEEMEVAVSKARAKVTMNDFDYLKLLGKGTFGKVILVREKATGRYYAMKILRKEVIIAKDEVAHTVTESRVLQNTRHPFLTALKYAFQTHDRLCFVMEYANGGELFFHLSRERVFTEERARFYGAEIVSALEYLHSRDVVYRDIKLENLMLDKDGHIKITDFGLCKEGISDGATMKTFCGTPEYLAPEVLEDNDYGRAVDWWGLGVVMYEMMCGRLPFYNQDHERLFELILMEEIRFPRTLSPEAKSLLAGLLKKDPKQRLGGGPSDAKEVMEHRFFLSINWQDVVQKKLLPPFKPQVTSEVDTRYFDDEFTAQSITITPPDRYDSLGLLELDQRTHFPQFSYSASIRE

Take `Cc1cc(OCc2ccc(F)cc2F)c(Br)c(=O)n1Cc1ccc(CN(C)C)cc1`: the inhibition in [1], in [2], in data set [3], in data set [4], in data set [5] and in data set [6] was under 50% in each case. Also, the inhibition in data set [7], in data set [8], in [9], in data set [11], in data set [12] and in data set [13] was under 50% throughout. In addition, the inhibition in [14], in data set [15], in data set [16], in data set [17], in [18] and in data set [19] was under 50% in each case. Also, the inhibition in data set [20], in data set [21], in data set [22], in [23] and in data set [24] was under 50% each time. For the same compound, the remaining at 0.75 h, 2 µM in data set [10] is 53%.
